Experimental data from the NIST ThermoML archive (doi:10.1021/je0501991).
± gives the expanded uncertainty stated by the source.

Columns and labels:
[1] = xn = mol fraction of the nth substance listed; settings: 308.15 K, 101.33 kPa, Liquid
[2] = molar heat capacity at constant pressure; xn = mol fraction of the nth substance listed; settings: 101.33 kPa, Liquid
[3] = refractive index (Na D-line) (dimensionless); xn = mol fraction of the nth substance listed; settings: 308.15 K, 101.33 kPa, Liquid, Standard Abbe refractometry
[4] = excess molar enthalpy (molar enthalpy of mixing); xn = mol fraction of the nth substance listed; settings: 308.15 K, 101.33 kPa, Liquid

OCCc1ccccc1 [2-phenylethanol] + C[S+](C)[O-]
mass density ([1]; x2 = 0.0435): 1011.25 ± 0.53 kg/m3
viscosity ([1]; x2 = 0.0435): 7.049 ± 0.11 mPa·s
mass density ([1]; x2 = 0.1521): 1017.45 ± 0.49 kg/m3
viscosity ([1]; x2 = 0.1521): 6.133 ± 0.097 mPa·s
mass density ([1]; x2 = 0.2758): 1024.6 ± 0.44 kg/m3
viscosity ([1]; x2 = 0.2758): 5.162 ± 0.081 mPa·s
mass density ([1]; x2 = 0.3564): 1029.49 ± 0.42 kg/m3
viscosity ([1]; x2 = 0.3564): 4.611 ± 0.072 mPa·s
mass density ([1]; x2 = 0.4566): 1035.91 ± 0.39 kg/m3
viscosity ([1]; x2 = 0.4566): 3.976 ± 0.062 mPa·s
mass density ([1]; x2 = 0.5477): 1042.18 ± 0.37 kg/m3
viscosity ([1]; x2 = 0.5477): 3.446 ± 0.053 mPa·s
mass density ([1]; x2 = 0.6247): 1047.95 ± 0.35 kg/m3
viscosity ([1]; x2 = 0.6247): 3.052 ± 0.046 mPa·s
mass density ([1]; x2 = 0.7102): 1054.95 ± 0.34 kg/m3
viscosity ([1]; x2 = 0.7102): 2.652 ± 0.04 mPa·s
mass density ([1]; x2 = 0.7707): 1060.33 ± 0.33 kg/m3
viscosity ([1]; x2 = 0.7707): 2.398 ± 0.036 mPa·s
mass density ([1]; x2 = 0.8346): 1066.5 ± 0.33 kg/m3
viscosity ([1]; x2 = 0.8346): 2.157 ± 0.032 mPa·s
mass density ([1]; x2 = 0.8653): 1069.64 ± 0.33 kg/m3
viscosity ([1]; x2 = 0.8653): 2.056 ± 0.031 mPa·s
mass density ([1]; x2 = 0.9433): 1078.31 ± 0.33 kg/m3
viscosity ([1]; x2 = 0.9433): 1.806 ± 0.027 mPa·s
molar heat capacity at constant pressure ([2]; 298.15 K, x2 = 0): 239.6 ± 19 J/K/mol
molar heat capacity at constant pressure ([2]; 298.15 K, x2 = 0.08581): 235 ± 19 J/K/mol
molar heat capacity at constant pressure ([2]; 298.15 K, x2 = 0.1638): 218.3 ± 18 J/K/mol
molar heat capacity at constant pressure ([2]; 298.15 K, x2 = 0.2999): 190.7 ± 15 J/K/mol
molar heat capacity at constant pressure ([2]; 298.15 K, x2 = 0.4205): 185 ± 15 J/K/mol
molar heat capacity at constant pressure ([2]; 298.15 K, x2 = 0.519): 185.5 ± 15 J/K/mol
molar heat capacity at constant pressure ([2]; 298.15 K, x2 = 0.6293): 169.3 ± 14 J/K/mol
molar heat capacity at constant pressure ([2]; 298.15 K, x2 = 0.6713): 171 ± 14 J/K/mol
molar heat capacity at constant pressure ([2]; 298.15 K, x2 = 0.7066): 162.6 ± 13 J/K/mol
molar heat capacity at constant pressure ([2]; 298.15 K, x2 = 0.7919): 162.7 ± 13 J/K/mol
molar heat capacity at constant pressure ([2]; 298.15 K, x2 = 0.8596): 156.2 ± 12 J/K/mol
molar heat capacity at constant pressure ([2]; 298.15 K, x2 = 0.937): 157.8 ± 13 J/K/mol
molar heat capacity at constant pressure ([2]; 298.15 K, x2 = 0.9688): 143.5 ± 12 J/K/mol
molar heat capacity at constant pressure ([2]; 308.15 K, x2 = 0): 245.3 ± 20 J/K/mol
molar heat capacity at constant pressure ([2]; 308.15 K, x2 = 0.08581): 240.8 ± 19 J/K/mol
molar heat capacity at constant pressure ([2]; 308.15 K, x2 = 0.1638): 223.2 ± 18 J/K/mol
molar heat capacity at constant pressure ([2]; 308.15 K, x2 = 0.2999): 194.2 ± 16 J/K/mol
molar heat capacity at constant pressure ([2]; 308.15 K, x2 = 0.4205): 188.4 ± 15 J/K/mol
molar heat capacity at constant pressure ([2]; 308.15 K, x2 = 0.519): 188.2 ± 15 J/K/mol
molar heat capacity at constant pressure ([2]; 308.15 K, x2 = 0.6293): 171.3 ± 14 J/K/mol
molar heat capacity at constant pressure ([2]; 308.15 K, x2 = 0.6713): 172.8 ± 14 J/K/mol
molar heat capacity at constant pressure ([2]; 308.15 K, x2 = 0.7066): 164.6 ± 13 J/K/mol
molar heat capacity at constant pressure ([2]; 308.15 K, x2 = 0.7919): 164.8 ± 13 J/K/mol
molar heat capacity at constant pressure ([2]; 308.15 K, x2 = 0.8596): 157.3 ± 13 J/K/mol
molar heat capacity at constant pressure ([2]; 308.15 K, x2 = 0.937): 159.6 ± 13 J/K/mol
molar heat capacity at constant pressure ([2]; 308.15 K, x2 = 0.9688): 144.8 ± 12 J/K/mol
molar heat capacity at constant pressure ([2]; 318.15 K, x2 = 0): 251.6 ± 20 J/K/mol
molar heat capacity at constant pressure ([2]; 318.15 K, x2 = 0.08581): 246.5 ± 20 J/K/mol
molar heat capacity at constant pressure ([2]; 318.15 K, x2 = 0.1638): 228.7 ± 18 J/K/mol
molar heat capacity at constant pressure ([2]; 318.15 K, x2 = 0.2999): 198.1 ± 16 J/K/mol
molar heat capacity at constant pressure ([2]; 318.15 K, x2 = 0.4205): 191.3 ± 15 J/K/mol
molar heat capacity at constant pressure ([2]; 318.15 K, x2 = 0.519): 190.7 ± 15 J/K/mol
molar heat capacity at constant pressure ([2]; 318.15 K, x2 = 0.6293): 173.6 ± 14 J/K/mol
molar heat capacity at constant pressure ([2]; 318.15 K, x2 = 0.6713): 174.9 ± 14 J/K/mol
molar heat capacity at constant pressure ([2]; 318.15 K, x2 = 0.7066): 166.5 ± 13 J/K/mol
molar heat capacity at constant pressure ([2]; 318.15 K, x2 = 0.7919): 166.8 ± 13 J/K/mol
molar heat capacity at constant pressure ([2]; 318.15 K, x2 = 0.8596): 159.1 ± 13 J/K/mol
molar heat capacity at constant pressure ([2]; 318.15 K, x2 = 0.937): 160 ± 13 J/K/mol
molar heat capacity at constant pressure ([2]; 318.15 K, x2 = 0.9688): 145.9 ± 12 J/K/mol
refractive index ([3]; x2 = 0.0435): 1.5257 ± 0.0007
refractive index ([3]; x2 = 0.1521): 1.5224 ± 0.0007
refractive index ([3]; x2 = 0.2758): 1.5179 ± 0.0007
refractive index ([3]; x2 = 0.3564): 1.5145 ± 0.0007
refractive index ([3]; x2 = 0.4566): 1.5099 ± 0.0007
refractive index ([3]; x2 = 0.5477): 1.5052 ± 0.0007
refractive index ([3]; x2 = 0.6247): 1.5008 ± 0.0007
refractive index ([3]; x2 = 0.7102): 1.4956 ± 0.0007
refractive index ([3]; x2 = 0.7707): 1.4916 ± 0.0007
refractive index ([3]; x2 = 0.8346): 1.487 ± 0.0007
refractive index ([3]; x2 = 0.8653): 1.4846 ± 0.0007
refractive index ([3]; x2 = 0.9433): 1.4783 ± 0.0007
excess molar enthalpy ([4]; x2 = 0.0655): -0.093 ± 0.00191 kcal/mol
excess molar enthalpy ([4]; x2 = 0.123): -0.15 ± 0.00287 kcal/mol
excess molar enthalpy ([4]; x2 = 0.1738): -0.185 ± 0.00359 kcal/mol
excess molar enthalpy ([4]; x2 = 0.219): -0.207 ± 0.00382 kcal/mol
excess molar enthalpy ([4]; x2 = 0.2961): -0.226 ± 0.0043 kcal/mol
excess molar enthalpy ([4]; x2 = 0.3593): -0.233 ± 0.0043 kcal/mol
excess molar enthalpy ([4]; x2 = 0.4569): -0.222 ± 0.00406 kcal/mol
excess molar enthalpy ([4]; x2 = 0.5286): -0.207 ± 0.00382 kcal/mol
excess molar enthalpy ([4]; x2 = 0.6273): -0.175 ± 0.00335 kcal/mol
excess molar enthalpy ([4]; x2 = 0.7163): -0.137 ± 0.00263 kcal/mol
excess molar enthalpy ([4]; x2 = 0.7709): -0.112 ± 0.00215 kcal/mol
excess molar enthalpy ([4]; x2 = 0.8347): -0.0825 ± 0.00167 kcal/mol
excess molar enthalpy ([4]; x2 = 0.8707): -0.0643 ± 0.00143 kcal/mol
excess molar enthalpy ([4]; x2 = 0.9099): -0.0459 ± 0.0012 kcal/mol
excess molar enthalpy ([4]; x2 = 0.9309): -0.0351 ± 0.000956 kcal/mol
excess molar enthalpy ([4]; x2 = 0.9528): -0.0234 ± 0.000717 kcal/mol
excess molar enthalpy ([4]; x2 = 0.9759): -0.012 ± 0.000478 kcal/mol
